# In article PMC11931565, “Exploring medium and long arm extensions of 1,2,4-triazole derivatives as Candida albicans 14α-demethylase (CYP51) inhibitors” (RSC Medicinal Chemistry, 2025):
# Like-named read-outs stand apart in the source and are kept apart here. Numbered stars: 1 amine (or outer) side, 2 acyl side, 3 side chain; on linkers, the order of the positions; unused ones are H or OH. Bridge positions count the residues as written; N and C are the ends. Square brackets hold non-standard residues; d marks the D form. Peptide text beside a SMILES is read from it. * marks the point of attachment. hTyr(3S-OH,4S-OH,3'-OSO3H) = N[C@H](C(=O)O)[C@H](O)[C@@H](O)c1ccc(O)c(OS(=O)(=O)O)c1; Orn(4R-OH,5R-OH) = O=C([C@H](C[C@@H](O)[C@@H](O)N[*:3])N[*:1])[*:2]; Pro(3S-OH,4S-Me) = C[C@H]1CN[C@H](C(=O)O)[C@H]1O; X1 = CCCCCOc1ccc(-c2cc(-c3ccc(C(=O)*)cc3)no2)cc1; Gln(3R-OH) = NC(=O)C[C@@H](O)[C@H](N)C(=O)O; Hyp = O=C(O)[C@@H]1C[C@@H](O)CN1
# Tests used:
# native CaCYP51 = biological target: T1, native CaCYP51 (Candida albicans, UniProt P10613); experiment: CaCYP51 type II ligand binding affinity (Kd) from difference spectra saturation curves; conditions: 2.5 μM native CaCYP51; mean ± SD of three titrations; read-out: K d
# T1 construct: made in house; host or cells: E. coli
# Protocol: Azole titration was performed in triplicate.
# The ligand–CaCYP51 complex was determined by non-linear regression (Levenberg–Marquardt algorithm) using a rearrangement of the Morrison equation for tight ligand binding,[38] while weak ligand binding was calculated by the Michaelis–Menten equation. Curve fitting for novel azole saturation curves was performed using the computer program ProFit 6.1.12 (QuantumSoft, Zurich, Switzerland) for Mac OSX. Kd values were determined for each of the three replicate titrations per azole compound and then mean Kd values and standard deviations calculated.
# [1] = test system: C. albicans wild-type clinical isolate CA14; experiment: C. albicans susceptibility testing (CLSI broth microdilution MIC), strain CA14; type: cell-based, Candida albicans; conditions: RPMI 1640, 37 °C, read at 48 h; for MIC: Candida albicans
# Source text: (§1) Each novel compound was screened against C. albicans wild-type clinical isolate CA14 and C. albicans laboratory strain SC5314 using the standardised CLSI M27-S4 broth dilution method.[28] […] This might be explained by the clog P data as the more lipophilic compounds should more readily penetrate the fungal membrane resulting in improved uptake or may relate to optimal fill of the small hydrophobic pocket leading to improved binding.
# (§2) Antifungal MIC values were obtained according to the CLSI microdilution method for yeasts.[28]C. albicans strains CA14 and SC5314 were tested in triplicate. Cultures were diluted to 2.5 × 10^3 cells per mL in RPMI 1640 (Sigma), buffered with 0.165 M MOPS, pH 7.0. Antifungal compounds were dissolved in DMSO and added at a final concentration of 1% v/v DMSO. Plates were incubated at 37 °C and read at 48 h.
# [2] = test system: C. albicans laboratory strain SC5314; experiment: C. albicans susceptibility testing (CLSI broth microdilution MIC), strain SC5314; type: cell-based, Candida albicans; conditions: RPMI 1640, 37 °C, read at 48 h; for MIC: Candida albicans, SC5314, 48 h
# Source text: as §1, §2
# [3] = biological target: T2, C. albicans CYP51 (CaCYP51) (Candida albicans, UniProt P10613); experiment: CaCYP51 reconstitution assay (IC50); type: biochemical; conditions: 1 μM CaCYP51, 60 μM lanosterol, 15 min at 37 °C
# T2 construct: made in house; host or cells: E. coli
# Protocol: Derivatives with a MIC <1 μg mL^−1 were chosen for IC50 testing.
# C. albicans CYP51 was overexpressed in E. coli and purified and CaCYP51 reconstitutions assays performed.[10,37] The final reaction volume of 500 μL, contained; 1 μM C. albicans CYP51, 2 μM Homo sapiens cytochrome P450 reductase (CPR) (UniProtKB accession number P16435), 60 μM lanosterol, 50 μM dilaurylphosphatidylcholine, 4% w/v 2-hydroypropyl-cyclodextrin, 0.4 mg mL^−1 isocitrate dehydrogenase, 25 mM trisodium isocitrate, 50 mM NaCl, 5 mM MgCl2, and 40 mM MOPS (morpholinepropanesulfonic acid, pH 7.2). Antifungal compounds were added in 2.5 μL DMSO. The reaction was started by the addition of 4 mM NADPH-tetrasodium salt. Samples were shaken for 15 min at 37 °C and sterol metabolites extracted with ethyl acetate and derivatised with BSTFA.
# [4] = test system: S. cerevisiae Y2411 parent (control levels of wild-type ScCYP51); experiment: MIC, recombinant S. cerevisiae strain Y2411 parent; type: cell-based; conditions: Saccharomyces cerevisiae
# Protocol: (§3) The most promising thiazole derivative 7b, and the extended amide derivatives 13a and 13b were evaluated against a panel of recombinant S. cerevisiae strains[24,31,32] expressing control levels of wild-type CYP51 (ScCYP51), overexpressed wild-type ScCYP51, overexpressed azole-resistant ScCYP51 Y140F/H mutations (S. cerevisiae Y140 equivalent to C. albicans Y132), overexpressed C. albicans efflux pumps MDR1a or CDR1B and overexpressed H. sapiens wild-type CYP51 (HsCYP51) (Table 3) at 24 and 48 h with each assay performed in triplicate.
# (§4) Minimum inhibitory concentration (MIC) were determined according to recommendations outlined in the Clinical and Laboratory Standards Institute (CLSI) document M27-Ed4E[39] with modifications. Sabouraud dextrose (SD) medium (pH 6.8) was used instead of RPMI-1640 for inoculum and growth of the S. cerevisiae strains and cultures were incubated at 30 °C. […] Stock solutions of each agent were prepared in DMSO and the final concentration of DMSO was 1% (v/v) in SD. […] The final concentration of all other compounds ranged from 0.03–16 μg mL^−1. Three biological repeats were performed.
# [5] = test system: S. cerevisiae Y2300 overexpressed wild-type ScCYP51; experiment: MIC, recombinant S. cerevisiae strain Y2300 ScCYP51; type: cell-based; conditions: Saccharomyces cerevisiae
# Protocol: as §3, §4
# [6] = test system: S. cerevisiae Y2760 overexpressed H. sapiens wild-type CYP51 (HsCYP51); experiment: MIC, recombinant S. cerevisiae strain Y2760 HsCYP51; type: cell-based; conditions: Saccharomyces cerevisiae
# Protocol: as §3
# The HsCYP51 ORF (NP_000777.1) was codon harmonized (ch) using DNA 2.0 for expression in S. cerevisiae and synthesized by ATUM (Newark, Ca, USA). The 3′ end of the ORF was extended to encode EQKI of the ScErg11 C-terminus, followed by a GGR linker and a 6xHis tag. Strain Y2514 was prepared by transforming host strain Y1857 with a transformation cassette including the above construct together with the ScPGK transcription terminator and URA3 selection marker located downstream, bordered by upstream and downstream parts of ScPDR5 gene identical to sequences in ScErg11 over-expressing strain Y941. Strain Y2514 constitutively overexpressed HsCYP51ch-6xHis and URA3 from the ScPDR5 locus.
# Strain Y2757 (Y2514, PDR15::HsCPRch-6xHis-LoxP-HIS1-LoxP) was prepared by co-expressing the cognate reductase HsCRP in strain Y2514. Codon harmonisation and synthesis of human NADPH-cytochrome P450 reductase isoform 2 (HsCPRch, NP_001369584.1) ORF was performed by ATUM. The gene was 3′ extended with a sequence encoding GGR-6xHIS. A transformation cassette was prepared by recombinant PCR to include the HsCPRch ORF with 657 nucleotides the ScPDR5 promoter upstream, and the ScPGK terminator followed by the LoxP flanked ScHIS1 selection marker downstream. ScPDR15 specific arms bordering the construct enabled the cassette to be integrated between the nucleotide 441 of the 5′ UTR and nucleotide 1 of the 3′ UTR in PDR15.
# Strain Y2758 (Y2757 ΔHIS1) was made using the following steps. Strain Y2757 was transformed with the pSH69 pGAL1-cre plasmid (Euroscarf, Germany) via selection on hygromycin (75 μg mL^−1) containing YPD plates. A single hygromycin positive colony was inoculated in 1% yeast extract, 2% peptone and 2% of galactose broth and incubated for 16 hours at 30 °C with shaking. The diluted culture was then plated on YPD agar and replica-plated on YPD + hygromycin and SD-HIS dropout agar plates. Deletion of the HIS selection marker downstream of HsCPRch-6xHis in the PDR15 locus was confirmed in double His and hygromycin negative isolates by PCR and DNA sequence analysis.
# The endogenous ScERG11 ORF in strain Y2758 was removed by transforming with a LoxP- ScHIS1 containing cassette with arms complementing from +387 nucleotides in the 5′UTR and −60 nucleotides in the 3′UTR of the ScERG11 locus, resulting in strain Y2760 (ADΔΔ PDR5::HsCYP51ch-6×HIS-URA3; PDR15::HsCPRch6×HIS-LoxP, ΔERG11-LoxP-HIS1-LoxP).
# as §4
# [7] = test system: S. cerevisiae Y2513 overexpressed ScCYP51 Y140H; experiment: MIC, recombinant S. cerevisiae strain Y2513 Y140H; type: cell-based; conditions: Saccharomyces cerevisiae, pH 6.8, read-out: MIC Y2513 Y140H
# Protocol: as §3, §4
# [8] = test system: S. cerevisiae Y570 overexpressing C. albicans ABC transporter CDR1B; experiment: MIC, recombinant S. cerevisiae strain Y570 CaCDR1B; type: cell-based; conditions: SD medium pH 6.8, 30 °C; 80% inhibition of growth
# Protocol: as §3, §4
# [9] = test system: S. cerevisiae Y525 overexpressing C. albicans MFS transporter MDR1a; experiment: MIC, recombinant S. cerevisiae strain Y525 CaMDR1a; type: cell-based; conditions: SD medium pH 6.8, 30 °C; 80% inhibition of growth
# Protocol: as §4
# [10] = test system: S. cerevisiae Y2301 overexpressed ScCYP51 Y140F; experiment: MIC, recombinant S. cerevisiae strain Y2301 Y140F; type: cell-based; conditions: Saccharomyces cerevisiae, pH 6.8, read-out: MIC Y2301 Y140F
# Protocol: as §3, §4
# T1 sequence (P10613 whole entry): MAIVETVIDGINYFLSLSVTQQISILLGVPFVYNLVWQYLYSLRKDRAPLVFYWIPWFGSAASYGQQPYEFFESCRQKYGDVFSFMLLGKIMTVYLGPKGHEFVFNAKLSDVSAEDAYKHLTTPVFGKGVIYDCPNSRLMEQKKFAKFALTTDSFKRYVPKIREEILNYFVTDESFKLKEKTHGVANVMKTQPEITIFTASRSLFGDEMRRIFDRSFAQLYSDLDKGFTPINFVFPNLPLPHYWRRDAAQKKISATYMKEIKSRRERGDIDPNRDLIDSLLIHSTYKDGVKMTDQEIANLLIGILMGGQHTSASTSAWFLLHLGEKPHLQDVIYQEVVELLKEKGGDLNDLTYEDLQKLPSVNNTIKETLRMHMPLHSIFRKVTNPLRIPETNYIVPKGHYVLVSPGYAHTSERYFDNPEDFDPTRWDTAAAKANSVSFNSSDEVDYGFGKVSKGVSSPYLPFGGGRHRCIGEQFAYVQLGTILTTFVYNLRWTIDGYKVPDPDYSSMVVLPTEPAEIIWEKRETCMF
# T2 sequence (P10613 whole entry): as above
SMILES,Kd (native CaCYP51) [µM],MIC [1] [µg/mL],MIC [2] [µg/mL],IC50 [3] [µM],other results
"CC(=O)c1cccc(C(=O)NCC(O)(Cn2cncn2)c2ccc(Cl)cc2)c1 (stereo not shown) [6a, 3-Acetyl-N-(2-(4-chlorophenyl)-2-hydroxy-3-(1H-1,2,4-triazol-1-yl)propyl)benzamide]",1.44 ± 0.266,0.25,0.25,1.3,
"CC(=O)c1cccc(C(=O)NCC(O)(Cn2cncn2)c2ccc(Cl)cc2Cl)c1 (stereo not shown) [6b, 3-Acetyl-N-(2-(2,4-dichlorophenyl)-2-hydroxy-3-(1H-1,2,4-triazol-1yl)propyl)benzamide]",0.229 ± 0.045,< 0.03,< 0.03,0.49,MIC CA14 [1]: <0.03 µg/mL; MIC SC5314 [2]: 0.06 µg/mL
"O=C(NCC(O)(Cn1cncn1)c1ccc(Cl)cc1)c1csc(Cl)n1 (stereo not shown) [7a, 2-Chloro-N-(2-(4-chlorophenyl)-2-hydroxy-3-(1H-1,2,4-triazol-1-yl)propyl)thiazole-4-carboxamide]",0.635 ± 0.181,0.25,0.25,0.77,
"O=C(NCC(O)(Cn1cncn1)c1ccc(Cl)cc1)c1ccc(NC(=S)Nc2ccc(Cl)cc2)cc1 (stereo not shown) [11a, N-(2-(4-Chlorophenyl)-2-hydroxy-3-(1H-1,2,4-triazol-1-yl)propyl)-4-(3-(4-chlorophenyl)thioureido)benzamide]",,4,4,,
"O=C(NCC(O)(Cn1cncn1)c1ccc(Cl)cc1Cl)c1ccc(NC(=S)Nc2ccc(Cl)cc2)cc1 (stereo not shown) [11b, 4-(3-(4-Chlorophenyl)thioureido)-N-(2-(2,4-dichlorophenyl)-2-hydroxy-3-(1H-1,2,4-triazol-1-yl)propyl)benzamide]",0.125 ± 0.041,0.25,0.5,0.67,
"O=C(Nc1ccc(Cl)cc1)Nc1ccc(C(=O)NCC(O)(Cn2cncn2)c2ccc(Cl)cc2)cc1 (stereo not shown) [12a, N-(2-(4-Chlorophenyl)-2-hydroxy-3-(1H-1,2,4-triazol-1-yl)propyl)-4-(3-(4-chlorophenyl)ureido)benzamide]",,1,2,,
"O=C(Nc1ccc(Cl)cc1)Nc1ccc(C(=O)NCC(O)(Cn2cncn2)c2ccc(Cl)cc2Cl)cc1 (stereo not shown) [12b, 4-(3-(4-Chlorophenyl)ureido)-N-(2-(2,4-dichlorophenyl)-2-hydroxy-3-(1H-1,2,4-triazol-1-yl)propyl)benzamide]",0.137 ± 0.014,0.125,0.125,0.47,
"O=C(NCC(O)(Cn1cncn1)c1ccc(Cl)cc1)c1ccc(NS(=O)(=O)c2ccc(Cl)cc2)cc1 (stereo not shown) [14a, N-(2-(4-Chlorophenyl)-2-hydroxy-3-(1H-1,2,4-triazol-1-yl)propyl)-4-((4-chlorophenyl)sulfonamido)benzamide]",,1,1,,
"O=C(NCC(O)(Cn1cncn1)c1ccc(Cl)cc1Cl)c1ccc(NS(=O)(=O)c2ccc(Cl)cc2)cc1 (stereo not shown) [14b, 4-((4-Chlorophenyl)sulfonamido)-N-(2-(2,4-dichlorophenyl)-2-hydroxy-3-(1H-1,2,4-triazol-1-yl)propyl)benzamide]",0.094 ± 0.024,0.25,0.25,0.78,
"CCCCCOc1ccc(-c2cc(-c3ccc(C(=O)N[C@H]4C[C@@H](O)[C@@H](O)NC(=O)[C@@H]5[C@@H](O)[C@@H](C)CN5C(=O)[C@H]([C@H](O)CC(N)=O)NC(=O)[C@H]([C@H](O)[C@@H](O)c5ccc(O)c(OS(=O)(=O)O)c5)NC(=O)[C@@H]5C[C@@H](O)CN5C(=O)[C@H]([C@@H](C)O)NC4=O)cc3)no2)cc1 [Micafungin, reference compound] (X1-[Orn(4R-OH,5R-OH)]T[Hyp][hTyr(3S-OH,4S-OH,3'-OSO3H)][Gln(3R-OH)][Pro(3S-OH,4S-Me)]; lactam 1-C)",,,,,"MIC ([4]; pH 6.8, read-out: MIC Y2411 parent): 0.125 µg/mL; MIC ([5]; pH 6.8, read-out: MIC Y2300 ScCYP51): 0.125 µg/mL; MIC ([6]; pH 6.8, read-out: MIC Y2760 HsCYP51): 0.125 µg/mL; MIC [7]: 0.125 µg/mL; MIC [8]: 0.125 µg/mL; MIC [9]: 0.125 µg/mL; MIC [10]: 0.125 µg/mL"
"CC[C@@H]([C@H](C)O)n1ncn(-c2ccc(N3CCN(c4ccc(OC[C@@H]5CO[C@@](Cn6cncn6)(c6ccc(F)cc6F)C5)cc4)CC3)cc2)c1=O [PCZ, posaconazole, reference compound]",,,,,"MIC ([4]; SD medium pH 6.8, 30 °C, 80% inhibition of growth, read-out: MIC Y2411 parent): < 0.03 µg/mL; MIC ([5]; SD medium pH 6.8, 30 °C, 80% inhibition of growth, read-out: MIC Y2300 ScCYP51): 0.06 µg/mL; MIC ([6]; SD medium pH 6.8, 30 °C, 80% inhibition of growth, read-out: MIC Y2760 HsCYP51): 8 µg/mL; MIC [7]: < 0.03 µg/mL; MIC [8]: 8 µg/mL; MIC [9]: < 0.03 µg/mL; MIC [10]: 0.06 µg/mL"
